In one test the test system is BMF transcripts. As to the kind of experiment: qPCR for BMF transcripts. The test is classed as cell-based. Conditions: 20 μM, 3 days; T98G, MDA-MB-231, MCF7, A375 and HCT116 cells. The procedure:
T98G, MDA-MB-231, MCF7, A375, and HCT116 cells were treated with or without 20 μM CP-dn-CEBPB or CP-dn-CEBPD for 3 days and then assessed by qPCR for relative levels of BMF transcripts (FIG. 35A, T98G; FIG. 35B, MDA-MB-231; FIG. 35C, MCF7; FIG. 35D, A375; FIG. 35E, HCT116).

The subject of another test is MCF7 breast cancer cells. As to the kind of experiment: Cell number after peptide treatment, MCF7. It is filed as cell-based. To be noted: 6 days, 0 μM to 50 μM; stock without BSA. The method, then:
Replicate cultures were exposed to the peptides the for 6 days at the indicated concentrations. Stock solutions of the peptides were prepared in buffer without added bovine serum albumin (BSA).
Replicate cultures of HCT116, MDA-MB 231, MCF7, and T98G cells were exposed to a 50/50 by concentration mixture of CP-DN-CEBPB and CP-DN-CEBPD for 6 days at doses of 0 μM to 50 μM. Stock solutions of the peptides were prepared in buffer without added bovine serum albumin (BSA).
Replicate cultures of T98G, HCT116, MDA-MB 231, and MCF7 cells were exposed to CP-DN-CEBPB, CP-DN-CEBPD, or a CP-DN-CEBPD in which heptad repeat leucine residues were mutated to glycine residues for 6 days at doses of 0 μM to 50 μM. Stock solutions of the peptides were prepared in buffer without added bovine serum albumin (BSA).

The subject of test [1] is MDA-MB-468 breast cancer cells. As to the kind of experiment: Cell number after peptide treatment, MDA-MB-468. The test is classed as cell-based, human. Conditions: 6 days, 0 μM to 50 μM; stock without BSA. The procedure:
Replicate cultures of MDA-MB-468 breast cancer cells, A549 lung cancer cells and 293T transformed embryonic kidney cells were exposed to CP-DN-CEBPB or CP-DN-CEBPD, for 6 days at doses of 0 μM to 50 μM. […] Stock solutions of the peptides were prepared in buffer without added bovine serum albumin (BSA).

The next test relates to human astrocytes. As to the kind of experiment: Morphology after peptide treatment, astrocytes. The test is classed as cell-based. Conditions: 6 days, 0 μM or 50 μM; stock without BSA. The method, then: Replicate cultures of human astrocytes were exposed to CP-DN-CEBPB or CP-DN-CEBPD for 6 days at final concentrations of 0 μM or 50 μM. […] Stock solutions of the peptides were prepared in buffer without added bovine serum albumin (BSA).

The test system of a further test is MCF7 cells. Description: Apoptotic nuclei, propidium iodide flow cytometry, MCF7. It is filed as cell-based. Conditions: 20 μM, 3 days, vs untreated cells. The procedure:
MDA-MB-231, MCF7, HCT116 and T98G cancer cell lines were treated for 3 days with 20 μM CP-dn-CEBPB and CP-dn-CEBPD peptides from stock solutions prepared without additives. Cultures were stained with propidium iodide and assessed for proportion of cells with apoptotic nuclei by flow cytometry.
In general terms: A flow cytometer gives signals particle by particle.

Another test deals with T98G cells. As to the kind of experiment: Combination with gamma radiation, cell number, T98G. To be noted: 2 Gy or 5 Gy; peptide 0.05, 0.5 or 5 μM one day later, 6 days; CI<1 indicates synergism. The test is classed as cell-based. The method, then: (§1) Replicate cultures of T98G and HCT116 cells were exposed to 2 Gy or 5 Gy of gamma radiation. One day later, the cultures were treated with 0.05 μM, 0.5 μM, or 5 μM CP-dn-CEBPB and CP-dn-CEBPD peptides, maintained for 6 days, and then assessed for cell number. The bar graphs of FIGS. 24A (T98G, CP-dn-CEBPB), 24C (T98G, CP-dn-CEBPBD, 24E (HCT116, CP-dn-CEBPD), and 24G (HCT116, CP-dn-CEBPD) show relative cell numbers for each condition as compared to untreated controls. The line graphs of FIGS. 24B (T98G, CP-dn-CEBPB), 24D (T98G, CP-dn-CEBPBD, 24F (HCT116, CP-dn-CEBPB), and 24H (HCT116, CP-dn-CEBPD) show the response as normalized in each case so that 100 represents the relative number of surviving cells that received the indicated level of radiation treatment, but no peptide treatment. Calculated Combination Indexes (CI) are T98G, CI=0.61±0.05 for CP-dn-CEBPB, 0.68±0.07 for CP-dn-CEBPD; HCT116, 0.89±0.04 for CP-dn-CEBPB, 0.86±0.05 for CP-dn-CEBPD. CI=1 indicates additivity; CI<1 indicates synergism; CI>1 indicates antagonism.

A further test relates to T98G and HCT116 cells. As to the kind of experiment: Combination with gamma radiation, overall conclusion. Conditions: 2 Gy or 5 Gy; immediate or delayed peptide treatment. The test is classed as cell-based. The procedure: Replicate cultures of T98G and HCT116 cells were exposed to 2 Gy or 5 Gy of gamma radiation. Immediately, the cultures were treated with 3 μM, 10 μM, or 20 μM CP-dn-CEBPB and CP-dn-CEBPD peptides, maintained for 6 days, and then assessed for cell number. […]
as §1, with “CI=1 indicates additivity; CI<1 indicates synergism; CI>1 indicates antagonism.” left out

The test system of a further test is IL8. As to the kind of experiment: qPCR for IL8 mRNA. Conditions: 20 μM, 3 days; T98G, MDA-MB-231, MCF7, A375 and HCT116 cells. It is filed as cell-based. The method, then:
T98G, MDA-MB-231, MCF7, A375, and HCT116 cells were treated with or without 20 μM CP-dn-CEBPB or CP-dn-CEBPD for 3 days and then assessed by qPCR for relative levels of IL6 (FIG. 32A, T98G; FIG. 32B, MDA-MB-231; FIG. 32C, MCF7; FIG. 32D, A375; FIG. 32E, HCT116) and IL8 mRNA (FIG. 32F, T98G; FIG. 32G, MDA-MB-231; FIG. 32H, MCF7; FIG. 32I, A375; FIG. 32J, HCT116).
Background: Quantitative PCR measures a nucleic acid by following its amplification.

The source of these data is patent publication US12428455B2, “Dominant negative CEBPB and CEBPD proteins and methods of use for decreasing viability of neoplastic cells” (The Trustees of Columbia University in the City of New York, priority 2018, dated 2025).

No end group written: not given here.

Consider “RQIKIWFQNRRMKWKKLETQHKVLELTAENERLQKKVEQLSRELSTLRNLFKQL [CP-DN-CEBPB]”, for which the “relative levels of BMF transcripts” value with BMF transcripts was “upregulate pro-apoptotic BMF”. In addition, the “growth and survival / numbers of MCF7 cells” value with MCF7 breast cancer cells was “decrease in growth and survival”. Also, in test [1], the “number of MDA-MB-468 cells” value is listed as “dose-dependent decrease in the number”. Also, the “morphology of human astrocytes” value in the test on human astrocytes is recorded as “did not affect the morphology”. Besides, in the test with MCF7 cells, the “proportion of cells with apoptotic nuclei” value is “increased apoptotic cell death”. Besides, the “Combination Index (CI) with gamma radiation” value in the test with T98G cells was found to be 0.61±0.05. Moreover, the “kind of combined effect with gamma radiation” value in the test with T98G and HCT116 cells is on record as “synergistic effect”. In the test on IL8, the “relative levels of IL8 mRNA” value is recorded as “suppress expression”.
Consider “RQIKIWFQNRRMKWKKLVELSAENEKLHQRVEQLTRDLAGLRQFFK [CP-DN-CEBPD]”, for which the “relative levels of BMF transcripts” value with BMF transcripts is “upregulate pro-apoptotic BMF”. Also, the “growth and survival / numbers of MCF7 cells” value with MCF7 breast cancer cells was “decrease in growth and survival”. The “number of MDA-MB-468 cells” value in test [1] is “dose-dependent decrease in the number”. In addition, the “morphology of human astrocytes” value with human astrocytes is “did not affect the morphology”. In the test on MCF7 cells, the “proportion of cells with apoptotic nuclei” value is “increased apoptotic cell death”. Moreover, in the test on T98G cells, the “Combination Index (CI) with gamma radiation” value worked out at 0.68±0.07. Further, the “kind of combined effect with gamma radiation” value in the test on T98G and HCT116 cells is “synergistic effect”. For the same sequence, the “relative levels of IL8 mRNA” value in the test with IL8 was “suppress expression”.
